In PubChem BioAssay AID1259411 (Chemical Carcinogenesis Research Information System (CCRIS), 2018):
Calls of active or inactive are those of the source. The rule behind the calls is not given here.

Test system: rodent carcinogenicity bioassays, tumor incidence
Experiment: CCRIS carcinogenicity studies
In short: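 Archive of carcinogenicity, mutagenicity, tumor promotion and tumor inhibition results drawn from journals, NCI reports and other sources, expert-reviewed; covers 1985-2011 and is no longer updated.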

ClC1(Cl)C2(Cl)C3(Cl)C4(Cl)C(Cl)(Cl)C5(Cl)C3(Cl)C1(Cl)C5(Cl)C24Cl (configuration not stated)
carcinogen call (Species: MOUSE, Strain/Sex: B6AKF1/MALE,FEMALE, Route: GAVAGE/ORAL, Dose: 10 MG/KG FROM D 7- 28 OF LIFE THEN 26 PPM IN DIET, Tumor Site: Type of Lesion: LIVER: HEPATOMA): active; positive
carcinogen call (Species: MOUSE, Strain/Sex: B6C3F1/MALE,FEMALE, Route: GAVAGE/ORAL, Dose: 10 MG/KG FROM D 7- 28 OF LIFE THEN 26 PPM IN DIET, Tumor Site: Type of Lesion: LIVER: HEPATOMA): active; positive
carcinogen call (Species: RAT, Route: ORAL, Tumor Site: Type of Lesion: LIVER): active; positive
carcinogen call (Species: RAT, Strain/Sex: F344/FEMALE, Route: ORAL, Dose: 0, 0.1, 1, 10, 25, 50 PPM IN FEED FOR 104 WK (STUDY DURATION: 105 WK), Dose: 0, 0.1, 1, 10, 25, 50 PPM IN FEED FOR 104 WK (STUDY DURATION: 105 WK), Tumor Site: Type of Lesion: HEMATOPOIETIC SYSTEM: MONONUCLEAR CELL LEUKEMIA): active; positive
carcinogen call (Species: RAT, Strain/Sex: F344/FEMALE, Route: ORAL, Dose: 0, 50, 100 PPM IN FEED FOR 104 WK (STUDY DURATION: 106 WK), Dose: 0, 50, 100 PPM IN FEED FOR 104 WK (STUDY DURATION: 106 WK), Tumor Site: Type of Lesion: HEMATOPOIETIC SYSTEM: MONONUCLEAR CELL LEUKEMIA, LIVER: NEOPLASTIC NODULE, NEOPLASTIC NODULE OR HEPATOCELLULAR CARCINOMA): active; positive
carcinogen call (Species: RAT, Strain/Sex: F344/MALE, Route: ORAL, Dose: 0, 0.1, 1, 10, 25, 50 PPM IN FEED FOR 104 WK (STUDY DURATION: 105 WK), Dose: 0, 0.1, 1, 10, 25, 50 PPM IN FEED FOR 104 WK (STUDY DURATION: 105 WK), Tumor Site: Type of Lesion: LIVER: NEOPLASTIC NODULE, NEOPLASTIC NODULE OR HEPATOCELLULAR CARCINOMA, ADRENAL GLAND: PHEOCHROMOCYTOMA, PHEOCHROMOCYTO): active; positive

C=CCOC(=O)CC(C)C
carcinogen call (Species: MOUSE, Strain/Sex: B6C3F1/FEMALE, Route: GAVAGE, Dose: 0, 31, 62 MG/KG IN CORN OIL FOR 103 WK, Dose: 0, 31, 62 MG/KG IN CORN OIL FOR 103 WK, Tumor Site: Type of Lesion: LYMPHATIC SYSTEM: MALIGNANT LYMPHOMA): active; positive
carcinogen call (Species: RAT, Strain/Sex: F344/MALE, Route: GAVAGE, Dose: 0, 31, 62 MG/KG IN CORN OIL FOR 103 WK, Dose: 0, 31, 62 MG/KG IN CORN OIL FOR 103 WK, Tumor Site: Type of Lesion: HEMATOPOIETIC SYSTEM (LEUKEMIA): MONONUCLEAR CELL LEUKEMIA): active; positive

CC(=O)CN(N=O)C(=O)NCCCl
carcinogen call (Species: RAT, Strain/Sex: F344/FEMALE, Route: GAVAGE, Dose: 0, 11.5 MG/ML IN CORN OIL/ETHYL ACETATE (2:1) 2/WK FOR 30 WK (STUDY DURATION: LIFETIME), Tumor Site: Type of Lesion: LIVER: TUMOR): active; positive
carcinogen call (Species: RAT, Strain/Sex: F344/FEMALE, Route: ORAL, Dose: 0, 46 MG/L IN DRINKING WATER 5 D/WK FOR 30 WK (STUDY DURATION: LIFETIME)): inactive; negative
carcinogen call (Species: RAT, Strain/Sex: F344/MALE, Route: GAVAGE, Dose: 0, 11.5 MG/ML IN CORN OIL/ETHYL ACETATE (2:1) 2/WK FOR 30 WK (STUDY DURATION: LIFETIME), Tumor Site: Type of Lesion: NERVOUS SYSTEM: TUMOR, SMALL INTESTINE: TUMOR): active; positive
carcinogen call (Species: RAT, Strain/Sex: F344/MALE, Route: ORAL, Dose: 0, 46 MG/L IN DRINKING WATER 5 D/WK FOR 30 WK (STUDY DURATION: LIFETIME), Tumor Site: Type of Lesion: LUNG: TUMOR, SKIN: TUMOR): active; positive

CCCCC(CC)COC(=O)c1ccccc1C(=O)OCC(CC)CCCC (configuration not stated)
carcinogen call (Species: MOUSE, Strain/Sex: B6C3F1/FEMALE, Route: ORAL, Dose: 0, 3000, 6000 PPM IN DIET FOR 102-104 WK (STUDY DURATION: 102-104 WK), Dose: 0, 3000, 6000 PPM IN DIET FOR 102-104 WK (STUDY DURATION: 102-104 WK), Tumor Site: Type of Lesion: LIVER: CARCINOMA, CARCINOMA OR ADENOMA): active; positive
carcinogen call (Species: MOUSE, Strain/Sex: B6C3F1/FEMALE, Route: ORAL, Dose: 0, 3000, 6000 PPM IN DIET FOR 103 WK (STUDY DURATION: 105 WK), Dose: 0, 3000, 6000 PPM IN DIET FOR 103 WK (STUDY DURATION: 105 WK), Tumor Site: Type of Lesion: LIVER: HEPATOCELLULAR CARCINOMA): active; positive
carcinogen call (Species: MOUSE, Strain/Sex: B6C3F1/MALE, Route: ORAL, Dose: 0, 3000, 6000 PPM IN DIET FOR 102-104 WK (STUDY DURATION: 102-104 WK), Dose: 0, 3000, 6000 PPM IN DIET FOR 102-104 WK (STUDY DURATION: 102-104 WK), Tumor Site: Type of Lesion: LIVER: CARCINOMA, CARCINOMA OR ADENOMA): active; positive
carcinogen call (Species: MOUSE, Strain/Sex: B6C3F1/MALE, Route: ORAL, Dose: 0, 3000, 6000 PPM IN DIET FOR 103 WK (STUDY DURATION: 104-105 WK), Dose: 0, 3000, 6000 PPM IN DIET FOR 103 WK (STUDY DURATION: 104-105 WK), Tumor Site: Type of Lesion: LIVER: HEPATOCELLULAR CARCINOMA): active; positive
carcinogen call (Species: RAT, Strain/Sex: F344/FEMALE, Route: ORAL, Dose: 0, 6000, 12000 PPM IN DIET FOR 102-104 WK (STUDY DURATION: 102-104 WK), Dose: 0, 6000, 12000 PPM IN DIET FOR 102-104 WK (STUDY DURATION: 102-104 WK), Tumor Site: Type of Lesion: LIVER: CARCINOMA, CARCINOMA OR ADENOMA): active; positive
carcinogen call (Species: RAT, Strain/Sex: F344/FEMALE, Route: ORAL, Dose: 0, 6000, 12000 PPM IN DIET FOR 103 WK (STUDY DURATION: 105 WK), Dose: 0, 6000, 12000 PPM IN DIET FOR 103 WK (STUDY DURATION: 105 WK), Tumor Site: Type of Lesion: LIVER: HEPATOCELLULAR CARCINOMA, NEOPLASTIC NODULE): active; positive
carcinogen call (Species: RAT, Strain/Sex: F344/MALE, Route: ORAL, Dose: 0, 2% IN DIET FOR 78 WK (STUDY DURATION: 78 WK), Tumor Site: Type of Lesion: LIVER: NEOPLASM): active; positive
carcinogen call (Species: RAT, Strain/Sex: F344/MALE, Route: ORAL, Dose: 0, 2% IN DIET FOR 108 WK (STUDY DURATION: 108 WK), Tumor Site: Type of Lesion: LIVER: NEOPLASTIC NODULE OR HEPATOCELLULAR CARCINOMA): active; positive
carcinogen call (Species: RAT, Strain/Sex: F344/MALE, Route: ORAL, Dose: 0, 6000, 12000 PPM IN DIET FOR 102-104 WK (STUDY DURATION: 102-104 WK), Dose: 0, 6000, 12000 PPM IN DIET FOR 102-104 WK (STUDY DURATION: 102-104 WK), Tumor Site: Type of Lesion: LIVER: CARCINOMA, CARCINOMA OR ADENOMA): active; positive
carcinogen call (Species: RAT, Strain/Sex: F344/MALE, Route: ORAL, Dose: 0, 6000, 12000 PPM IN DIET FOR 103 WK (STUDY DURATION: 104-105 WK), Dose: 0, 6000, 12000 PPM IN DIET FOR 103 WK (STUDY DURATION: 104-105 WK), Tumor Site: Type of Lesion: LIVER: HEPATOCELLULAR CARCINOMA OR NEOPLASTIC NODULE): active; positive
carcinogen call (Species: RAT, Strain/Sex: SPRAGUE-DAWLEY/MALE (31-167/GROUP), Route: ORAL, Dose: 0, 30, 95, 300 MG/KG/D IN DIET UP TO 159 WK (STUDY DURATION: LIFE TIME), Dose: 0, 30, 95, 300 MG/KG/D IN DIET UP TO 159 WK (STUDY DURATION: LIFE TIME), Tumor Site: Type of Lesion: TESTIS: LEYDIG CELL TUMORS): active; positive
carcinogen call (Species: RAT, Strain/Sex: SPRAGUE-DAWLEY/MALE (31-167/GROUP), Route: ORAL, Dose: 0, 30, 95, 300 MG/KG/D IN DIET UP TO 159 WK (STUDY DURATION: LIFETIME), Dose: 0, 30, 95, 300 MG/KG/D IN DIET UP TO 159 WK (STUDY DURATION: LIFETIME), Tumor Site: Type of Lesion: LIVER: CHOLANGIOCELLULAR TUMORS, TESTIS: LEYDIG CELL TUMORS (SIGNIFICANT DOSE RELATED TREND, INCIDENCE COMPARED TO CONTR, Tumor Site: Type of Lesion: LIVER: CHOLANGIOCELLULAR TUMORS, TESTIS: LEYDIG CELL TUMORS (SIGNIFICANT DOSE RELATED TREND, INCIDENCE COMPARED TO CONTR): active; positive

OO
carcinogen call (Species: MOUSE, Strain/Sex: C57BL/MALE,FEMALE, Route: ORAL, Dose: 0, 0.1%, 0.4% IN DRINKING WATER (STUDY DURATION: 108 WK), Dose: 0, 0.1%, 0.4% IN DRINKING WATER (STUDY DURATION: 108 WK), Tumor Site: Type of Lesion: DUODENUM: ADENOMA, ADENOCARCINOMA): active; positive

COC(=O)N/N=C/c1c[n+]([O-])c2ccccc2[n+]1[O-]
carcinogen call (Species: RAT, Strain/Sex: WISTAR/FEMALE, Route: ORAL, Dose: 0, 50, 100, 250, 500 PPM IN DIET FOR 12 MO (STUDY DURATION: 12 MO), Dose: 0, 50, 100, 250, 500 PPM IN DIET FOR 12 MO (STUDY DURATION: 12 MO), Tumor Site: Type of Lesion: LIVER: HEPATOCELLULAR CARCINOMA): active; positive
carcinogen call (Species: RAT, Strain/Sex: WISTAR/MALE, Route: ORAL, Dose: 0, 50, 100, 250, 500 PPM IN DIET FOR 12 MO (STUDY DURATION: 12 MO), Dose: 0, 50, 100, 250, 500 PPM IN DIET FOR 12 MO (STUDY DURATION: 12 MO), Tumor Site: Type of Lesion: LIVER: HEPATOCELLULAR CARCINOMA): active; positive
